According to patent US8124580B2, “Apolipoprotein A1 mimetics and uses thereof” (Trustees of Tufts College, priority 2004, dated 2012):
Entries after “also recorded” stand apart in the source; their conditions may differ. [ ]: non-standard residue; d: D form.

Assays:
LDL receptor-null mice = conditions: oral administration; cited from earlier work
[1] = Association with DMPC phospholipid, gel filtration chromatography; format: binding; conditions: FIGS. 2A-D
Text: To assess the ability of purified Rev-D4F to interact with phospholipids, the purified peptidomimetic was mixed with 1,2-dimyristoyl-sn-glycero-3-phosphocholine (DMPC), which is a component of membrane lipid bi-layer with which cholesterol is associated, and fractionated by gel filtration chromatography.

[2] = test system: human aortic endothelial cells; assay: Lipid peroxidation caused by human aortic endothelial cells (TBARS); format: cell-based; conditions: FIG. 5; for lipid peroxidation (TBARS) caused by endothelial cells: human aortic endothelial cells as oxidant
Text: (§1) The present study measured the ability of Rev-D4F, D-4F, and L-4F mimetic peptides to inhibit lipid peroxidation caused by human aortic endothelial cells and copper(II) sulfate, based upon inhibiting an increase in concentrations of thiobarbituric acid-reactive substances (TBARS).

[3] = molecular target: T1, Scavenger receptor class B type I (SR-BI) (Homo sapiens, UniProt Q8WTV0); assay: SR-BI-dependent cholesterol efflux from SR-BI-transfected cells; format: cell-based
T1 construct: expressed in transfected cells
T1 sequence (Q8WTV0 1-509 isoform Q8WTV0-2): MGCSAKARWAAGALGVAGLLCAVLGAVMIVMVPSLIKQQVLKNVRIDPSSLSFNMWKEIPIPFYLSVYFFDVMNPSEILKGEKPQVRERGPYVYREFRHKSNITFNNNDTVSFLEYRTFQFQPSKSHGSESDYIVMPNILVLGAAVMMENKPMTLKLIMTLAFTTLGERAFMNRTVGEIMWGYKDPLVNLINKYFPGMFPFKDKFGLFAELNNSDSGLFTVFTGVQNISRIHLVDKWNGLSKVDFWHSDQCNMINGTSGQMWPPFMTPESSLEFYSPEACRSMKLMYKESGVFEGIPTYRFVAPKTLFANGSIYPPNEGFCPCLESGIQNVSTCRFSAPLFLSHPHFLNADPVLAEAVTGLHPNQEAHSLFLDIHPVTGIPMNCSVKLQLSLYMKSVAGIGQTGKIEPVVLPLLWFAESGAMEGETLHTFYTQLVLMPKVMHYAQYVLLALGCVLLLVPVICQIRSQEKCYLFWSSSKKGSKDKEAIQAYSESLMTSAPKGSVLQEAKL
Method: (§2) The effect of Rev-D4F on the cholesterol efflux in a […] was examined. Scavenger receptor class B type I (“SR-BI”) is a receptor for HDL normally expressed on the surface of the liver cells. Tritiated cholesterol was added to cells transfected with SR-BI, with wild type Apo A-I, L4F peptide, D4F peptide, or Rev-D4F peptidomimetic, and the percentage of cholesterol efflux was determined.

apoE-null mice = assay: Atherosclerosis in apoE-null mice, oral in drinking water; format: in vivo; conditions: aortic root, 1.6 mg/day orally, 6 weeks; for decrease in lesion area as compared to water control: p<0.02
Method: In this study, the comparative effect of Rev-D4F, D-4F, and L-4F mimetic peptides on atherosclerosis in apoE-null mice was measured. Four groups of apoE-null mice (4 weeks old, n=15) were fed a chow diet, and administered water (control), Rev-D4F, D-4F, or L-4F mimetic peptides (1.6 mg/day, n=12/group) orally in drinking water for 6 weeks. Quantitative morphometry of aortic root cross sections stained with oil-red O was performed with NIH software.

[4] = test system: LDL-induced monocyte chemotactic activity; conditions: previously shown; cited from earlier work
[5] = test system: lipid peroxidation caused by copper(II) sulfate; assay: Lipid peroxidation caused by copper(II) sulfate (TBARS); format: biochemical; conditions: copper(II) sulfate as oxidant, FIG. 6
Text: as §1

LDL = conditions: cited from earlier work; for LDL oxidation: previously shown
[6] = molecular target: T2, ATP-binding cassette protein A1 (ABCA1) (Homo sapiens, UniProt O95477); assay: ABCA1-dependent cholesterol efflux from ABCA1-transfected cells; format: cell-based
T2 construct: expressed in transfected cells
T2 sequence (O95477 whole entry, species assumed): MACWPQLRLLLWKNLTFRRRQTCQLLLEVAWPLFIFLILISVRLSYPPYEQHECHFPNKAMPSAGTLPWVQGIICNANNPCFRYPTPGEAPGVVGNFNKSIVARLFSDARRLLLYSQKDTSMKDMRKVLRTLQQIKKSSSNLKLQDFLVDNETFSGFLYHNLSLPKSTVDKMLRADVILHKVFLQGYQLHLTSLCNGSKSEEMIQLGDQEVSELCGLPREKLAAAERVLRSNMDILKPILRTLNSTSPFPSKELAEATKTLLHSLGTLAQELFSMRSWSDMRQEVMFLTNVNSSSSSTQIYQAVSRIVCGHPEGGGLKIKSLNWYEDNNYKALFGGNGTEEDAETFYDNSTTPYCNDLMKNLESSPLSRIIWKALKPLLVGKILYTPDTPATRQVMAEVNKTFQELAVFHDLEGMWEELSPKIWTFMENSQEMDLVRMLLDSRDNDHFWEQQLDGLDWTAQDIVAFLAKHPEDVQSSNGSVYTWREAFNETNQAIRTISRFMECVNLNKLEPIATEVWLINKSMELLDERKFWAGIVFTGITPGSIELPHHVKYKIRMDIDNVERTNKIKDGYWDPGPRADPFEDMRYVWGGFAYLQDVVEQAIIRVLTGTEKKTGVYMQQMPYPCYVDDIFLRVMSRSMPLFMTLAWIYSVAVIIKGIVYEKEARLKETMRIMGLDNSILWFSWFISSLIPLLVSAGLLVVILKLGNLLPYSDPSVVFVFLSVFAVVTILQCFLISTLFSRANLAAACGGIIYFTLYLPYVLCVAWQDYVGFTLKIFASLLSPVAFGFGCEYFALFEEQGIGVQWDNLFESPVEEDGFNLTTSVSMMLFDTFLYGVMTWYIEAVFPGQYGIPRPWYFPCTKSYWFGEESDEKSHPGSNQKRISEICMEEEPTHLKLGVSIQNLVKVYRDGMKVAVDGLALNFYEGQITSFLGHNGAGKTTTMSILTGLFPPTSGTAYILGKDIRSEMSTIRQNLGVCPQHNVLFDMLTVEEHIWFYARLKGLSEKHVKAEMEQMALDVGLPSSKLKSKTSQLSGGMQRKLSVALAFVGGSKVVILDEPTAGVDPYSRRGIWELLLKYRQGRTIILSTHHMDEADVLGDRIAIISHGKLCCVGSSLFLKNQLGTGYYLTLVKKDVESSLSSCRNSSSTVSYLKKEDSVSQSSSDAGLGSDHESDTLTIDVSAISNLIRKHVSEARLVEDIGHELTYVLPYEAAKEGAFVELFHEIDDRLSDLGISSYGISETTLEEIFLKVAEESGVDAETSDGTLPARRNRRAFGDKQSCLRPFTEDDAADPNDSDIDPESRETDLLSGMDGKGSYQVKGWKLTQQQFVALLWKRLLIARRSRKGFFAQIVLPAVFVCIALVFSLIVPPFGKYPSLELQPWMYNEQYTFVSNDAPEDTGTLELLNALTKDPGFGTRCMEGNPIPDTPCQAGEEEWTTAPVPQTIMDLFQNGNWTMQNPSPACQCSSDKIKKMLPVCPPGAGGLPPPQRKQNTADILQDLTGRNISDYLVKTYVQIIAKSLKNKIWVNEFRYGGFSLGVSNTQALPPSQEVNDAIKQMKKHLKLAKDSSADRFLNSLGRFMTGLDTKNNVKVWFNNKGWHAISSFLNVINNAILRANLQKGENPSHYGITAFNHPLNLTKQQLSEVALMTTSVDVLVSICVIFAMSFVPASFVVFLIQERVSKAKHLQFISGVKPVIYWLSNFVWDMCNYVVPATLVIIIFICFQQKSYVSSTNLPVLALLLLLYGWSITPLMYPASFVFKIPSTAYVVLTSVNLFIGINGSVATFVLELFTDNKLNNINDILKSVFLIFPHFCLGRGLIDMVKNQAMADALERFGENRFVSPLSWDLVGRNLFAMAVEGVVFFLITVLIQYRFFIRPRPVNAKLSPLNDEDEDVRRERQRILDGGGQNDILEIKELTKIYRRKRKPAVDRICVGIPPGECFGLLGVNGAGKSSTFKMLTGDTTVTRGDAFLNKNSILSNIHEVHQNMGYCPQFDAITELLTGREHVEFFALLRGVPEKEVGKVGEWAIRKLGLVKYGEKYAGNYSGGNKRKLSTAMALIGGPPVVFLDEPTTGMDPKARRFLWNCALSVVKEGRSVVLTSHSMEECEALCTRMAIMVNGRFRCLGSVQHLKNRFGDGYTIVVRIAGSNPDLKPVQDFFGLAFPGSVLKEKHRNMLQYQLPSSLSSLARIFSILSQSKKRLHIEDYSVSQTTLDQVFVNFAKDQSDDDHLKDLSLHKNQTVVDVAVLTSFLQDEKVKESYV
Method: as §2
The effect of Rev-D4F on the cholesterol efflux in a manner dependent on ATP-binding cassette protein A1 (“ABCA1”) was also examined using the same methodology as for SR-BI, except that ABCA1 was transfected.

[7] = test system: monocyte chemotactic protein-1 (MCP-1) mRNA; assay: MCP-1 mRNA expression in endothelial cells; format: cell-based
Text: This study analyzed the effects of Rev-D4F, D-4F, and L-4F mimetic peptides to reduce the levels of an […] marker, monocyte chemotactic protein-1 (MCP-1). Based upon levels of MCP-1 mRNA, all three peptidomimetics reduced the amount of MCP-1.

[8] = in vivo; cited from earlier work

efficiency in promoting SR-BI-dependent cholesterol efflux compared to Apo A-I ([3]; per mole basis)	efficiency in promoting SR-BI-dependent cholesterol efflux compared to Apo A-I ([3]; per weight basis)	efficiency in promoting ABCA1-dependent cholesterol efflux compared to Apo A-I ([6]; per mole basis)	efficiency in promoting ABCA1-dependent cholesterol efflux compared to Apo A-I ([6]; per weight basis)	Substance	reduction of atherosclerotic lesions (LDL receptor-null mice)	spontaneous association with DMPC (co-elution with phospholipid) [1]	lipid peroxidation (TBARS) caused by endothelial cells [2]	decrease in lesion area as compared to water control (apoE-null mice)	LDL-induced monocyte chemotactic activity [4]	lipid peroxidation (TBARS) caused by copper sulfate [5]	LDL oxidation (LDL)	MCP-1 mRNA level ([7]; FIG. 7)	stability upon oral administration [8]	effect on atherosclerotic lesions (apoE-null mice)	LDL and phospholipid oxidation (LDL; mechanisms independent of HDL-mediated processes)	inhibition in lipid peroxidation compared with D-4F ([2]; endothelial cells as oxidant)	lipid peroxidation (TBARS) caused by endothelial cells ([2]; listed as Rev D-4-F)	inhibition in lipid peroxidation compared with D-4F [5]	lipid peroxidation (TBARS) caused by copper sulfate ([5]; listed as Rev D-4-F)	MCP-1 mRNA level ([7]; FIG. 7, listed as Rev D-4-F)
less efficient	more efficient	less efficient	more efficient	Ac-D-W-F-K-A-F-Y-D-K-V-A-E-K-F-K-E-A-F-NH2 [D-4F] (Ac-[dD][dW][dF][dK][dA][dF][dY][dD][dK][dV][dA][dE][dK][dF][dK][dE][dA][dF]-NH2)	~80%	associated spontaneously	significantly decreased; also recorded: inhibit	33%	block	significantly decreased; also recorded: inhibit	block	reduced; also recorded: inhibit	stable							
less efficient	more efficient	less efficient	more efficient	Ac-D-W-F-K-A-F-Y-D-K-V-A-E-K-F-K-E-A-F-NH2 [L-4F] (Ac-DWFKAFYDKVAEKFKEAF-NH2)		associated spontaneously	significantly decreased; also recorded: inhibit		block	significantly decreased; also recorded: inhibit	block	reduced; also recorded: inhibit		no effect	inhibits					
				Apo A-I: the major HDL apoprotein; intact/wild type protein used as comparator		only certain portions														

Substance	efficiency in promoting SR-BI-dependent cholesterol efflux compared to Apo A-I ([3]; per mole basis)	efficiency in promoting SR-BI-dependent cholesterol efflux compared to Apo A-I ([3]; per weight basis)	efficiency in promoting ABCA1-dependent cholesterol efflux compared to Apo A-I ([6]; per mole basis)	efficiency in promoting ABCA1-dependent cholesterol efflux compared to Apo A-I ([6]; per weight basis)	reduction of atherosclerotic lesions (LDL receptor-null mice)	spontaneous association with DMPC (co-elution with phospholipid) [1]	lipid peroxidation (TBARS) caused by endothelial cells [2]	decrease in lesion area as compared to water control (apoE-null mice)	LDL-induced monocyte chemotactic activity [4]	lipid peroxidation (TBARS) caused by copper sulfate [5]	LDL oxidation (LDL)	MCP-1 mRNA level ([7]; FIG. 7)	stability upon oral administration [8]	effect on atherosclerotic lesions (apoE-null mice)	LDL and phospholipid oxidation (LDL; mechanisms independent of HDL-mediated processes)	inhibition in lipid peroxidation compared with D-4F ([2]; endothelial cells as oxidant)	lipid peroxidation (TBARS) caused by endothelial cells ([2]; listed as Rev D-4-F)	inhibition in lipid peroxidation compared with D-4F [5]	lipid peroxidation (TBARS) caused by copper sulfate ([5]; listed as Rev D-4-F)	MCP-1 mRNA level ([7]; FIG. 7, listed as Rev D-4-F)
Ac-F-A-E-K-F-K-E-A-V-K-D-Y-F-A-K-F-W-D-NH2 (Ac-[dF][dA][dE][dK][dF][dK][dE][dA][dV][dK][dD][dY][dF][dA][dK][dF][dW][dD]-NH2; SMILES CC(=O)N[C@H](Cc1ccccc1)C(=O)N[C@H](C)C(=O)N[C@H](CCC(=O)O)C(=O)N[C@H](CCCCN)C(=O)N[C@H](Cc1ccccc1)C(=O)N[C@H](CCCCN)C(=O)N[C@H](CCC(=O)O)C(=O)N[C@H](C)C(=O)N[C@@H](C(=O)N[C@H](CCCCN)C(=O)N[C@H](CC(=O)O)C(=O)N[C@H](Cc1ccc(O)cc1)C(=O)N[C@H](Cc1ccccc1)C(=O)N[C@H](C)C(=O)N[C@H](CCCCN)C(=O)N[C@H](Cc1ccccc1)C(=O)N[C@H](Cc1c[nH]c2ccccc12)C(=O)N[C@H](CC(=O)O)C(N)=O)C(C)C) [Rev-D4F]	less efficient	more efficient	less efficient	more efficient		associated spontaneously	significantly decreased	46%		significantly decreased		reduced				significantly greater	inhibit	significantly greater	inhibit	inhibit
